Data set [1] has as its system Beagle dogs. The following applies: dog, in vivo. On the procedure:
A single male dog was administered M4N (12.5 mg/mL) in 20% HP-β-CD/50% PEG 300 via IV infusion (10 mL/kg/hour). Increased pressure in the infusion line and test formulation leakage from the syringe occurred. […] Because the observations were considered severe, the animal was considered moribund and scheduled for euthanization.
The dog recovered within 1 hour and 15 minutes of dosing and presented no continued or additional adverse clinical signs.
An additional male and female were dosed at 150 mg/kg and then at 125 mg/kg. […] Both animals recovered within 1 hour of dosing and no additional important clinical signs were subsequently noted.
Two extra (naïve) dogs were added to the study design and dosed at 75 mg/kg/day at an infusion rate of 5 mL/kg/hour, for a total of 12 doses in a 13-day interval. […] Clinical observations included soft feces in the male and frothy white emesis in the female; these findings were infrequent or isolated incidences and are considered unrelated to treatment. […] Both dogs recovered from any noted clinical signs within 1 hour of dosing. […] No other treatment-related observations were noted.

Data set [2] relates to Sprague-Dawley rats. Put plainly: 8-Day IV infusion toxicity study in Sprague-Dawley rats. It is filed as in vivo. On the procedure: Escalating doses of 0, 100, 150, or 200 mg/kg M4N in 10% HP-β-CD in PEG 300 (6.25 mg/mL) were administered by IV infusion once every four days to male and female Sprague-Dawley rats (3/each sex) at 8 mL/kg/hr. […] […] One male rat was found dead on the first day dosage during administration of the vehicle and one female rat was found dead on day 5 of the study at the end of the infusion of 100 mg/kg of the test material. These deaths were not considered related to the test article because for one rat no test article (only vehicle) was administered and for the other rat, this was a single event with other rats surviving multiple days of dosing at 200 mg/kg/day.

A short description of data set [3]: Solubility of M4N in water-insoluble lipids (visual inspection). It is filed as physicochemical. On the procedure:
A 10 mL solution of M4N at a concentration of about 50 mg/mL in sesame oil was made as follows. About 10 mL of sesame oil were added to a glass beaker containing a stir bar. The beaker was placed on a magnetic plate and the stir bar was set to stir at medium speed. About 500 mg of M4N were slowly added to the sesame oil in the center of the beaker with the aid of a spatula to prevent M4N from sticking to the beaker wall. The M4N/sesame oil mixture was stirred for about 2 hr or until all M4N had dissolved or was uniformly suspended without any clump being present. The M4N/sesame oil mixture was heated at about 60° C. for about 30 min. (or longer if a larger volume of solution was desired, for example, 1 hr at 60° C. for 500 mL of the M4N/sesame oil mixture), or longer as need to ensure complete dissolution of M4N. […] If crystals formed, the M4N/sesame oil solution could be heated again at 60° C. for about 1 hr, with stirring, on a hot magnetic plate until all M4N was dissolved back in solution. The final M4N/sesame oil solution was stored at room temperature and was kept protected from light.
A 10 mL solution of M4N at a concentration of about 60 mg/mL in 85% sesame oil and 15% Tween® 20 was made as follows. About 8.5 mL of sesame oil were added to a glass beaker containing a stir bar. The beaker was placed on a magnetic plate and the stir bar was set to stir at medium speed. About 1.5 mL of Tween® 20 was slowly added to the center of the beaker. About 600 mg of M4N were slowly added to the sesame oil/Tween® 20 mixture in the center of the beaker with the aid of a spatula to prevent M4N from sticking to the beaker wall. The M4N/sesame oil/Tween® 20 mixture was stirred for about 2 hr or until all M4N had dissolved or was uniformly suspended without any clumps being present. The M4N/sesame oil/Tween® 20 mixture was heated at about 60° C. for about 30 min. (or longer if a larger volume of solution was desired, for example, 1 hr at 60° C. for 500 mL of the M4N/sesame oil/Tween® 20 mixture), or longer as need to ensure complete dissolution of M4N. […]

Setting [4] is: 200 mg/kg/day, continued daily dosing phase.

Where only a bound is given, the exact number is not on record here.

Consider `COc1ccc(C[C@@H](C)[C@@H](C)Cc2ccc(OC)c(OC)c2)cc1OC` [Formulation M4N, meso-1,4-bis(3,4-dimethoxyphenyl)-2,3-dimethylbutane], for which, in data set [1], the “clinical signs following dosing” value was “uncoordinated/unbalanced movements and frequent urination”; the “notable post dose observation” value is reported as “single observation of red-brown urine in the female on SD 7”; the “time to recovery after dosing” value is 1 h and 0.25 h. Moreover, in data set [2] (setting [4]), the “clinical observations: ptosis and hyperactivity” value was “ptosis and hyperactivity occurred in one male and one female rat”; the “clinical observations: tremors” value was “tremors did occur in one male and one female rat”. Also, in data set [2] (100, 150 or 200 mg/kg M4N in 10% HP-β-CD in PEG 300 (6.25 mg/mL), IV infusion 8 mL/kg/hr), the mortality entry was “No obvious mortality related to M4N occurred”. Further, the “doses that appeared to be tolerated” value in data set [2] (for up to eight consecutive days) was at most 200 mg/kg/day. The body weight result in data set [2] (male and female rats) is reported as “gained weight throughout the study”. For the same compound, the “stable at room temperature” value in data set [3] (89% sesame oil and 11% Tween® 20, M4N 29 mg/mL, dissolved at 60° C.) is on record as “more than 7 days”. Also, the “Stability Time at Room Temperature” value in data set [3] (Sesame Oil and Tween ® 20: 10% Oil emulsion in 90% saline, M4N 2.9 mg/mL) is under 3 days. Besides, the “stable at room temperature” value in data set [3] (sesame oil, M4N 50 mg/mL) was “less than 1 day”.
